pEC50, pIC50: −log10 of the molar value. Where two headings read alike, the source gives them in different places.
What was measured:
coxsackievirus B3 = assay: Anti-coxsackievirus assay (CPE / MTT) in Vero cells; assay type: cell-based
BEL7402 = assay: Cytotoxicity CCK-8 assay, BEL7402; assay type: cell-based; conditions: Homo sapiens, Bel-7402; for pIC50: BEL7402
PC-3 = assay: Cytotoxicity CCK-8 assay, PC-3; assay type: cell-based; conditions: Homo sapiens; for pIC50: PC-3
[1] = tested on: Hela229, SGC7901, PC-3, BEL7402, and MCF-7/ADR; assay: Cytotoxicity CCK-8 assay, small panel of human cancer cell lines (summary statements); assay type: cell-based
Hela229 = assay: Cytotoxicity CCK-8 assay, Hela229; assay type: cell-based; conditions: Homo sapiens, HeLa 229; for pIC50: Hela229
MCF-7/ADR = assay: Cytotoxicity CCK-8 assay, MCF-7/ADR; assay type: cell-based; conditions: Homo sapiens, NCI/ADR-RES
SGC7901 = assay: Cytotoxicity CCK-8 assay, SGC7901; assay type: cell-based; conditions: Homo sapiens, SGC-7901; for pIC50: SGC7901
SH-SY5Y cells [2] = assay: Neuroprotection against H2O2-induced neurotoxicity (MTT); assay type: cell-based; conditions: 500 μM compound, 80 μM H2O2, mean ± SEM
[3] = tested on: influenza virus B/Victoria strain; assay: microbe, parasite or virus in culture; assay type: cell-based; conditions: MDCK cells
influenza virus A/H3N2 = assay: microbe, parasite or virus in culture; assay type: cell-based, influenza virus A (H3N2 strain); conditions: MDCK cells
SH-SY5Y cells [4] = assay: Neuroprotection against Aβ25−35-induced neurotoxicity (MTT); conditions: 10 μM compound, 10 μM Aβ25-35, mean ± SEM
Description: The cells, obtained from the American Type Culture Collection (ATCC, Manassas, VA, USA) at high passages, maintained at 37 °C in a humidified atmosphere containing 5% CO2. Cells were seeded into 96-well plates at a density of 2 × 10^5 cells/mL in MEM/F12 medium supplemented with 10% (v/v) fetal bovine serum. Experiments were carried out after 24 h of seeding. Test compounds and positive control (epigallocatechin-3-gallate, EGCG; NAC) were made to 10^−2 M stock solutions with DMSO and then diluted to corresponding concentrations with cell culture medium. Cells were incubated with test compounds or EGCG (10 μM, Sigma, St. Louis, MO, USA, purity > 98%)/NAC for 2 h, followed by exposure to 80 μM H2O2 or 10 μM Aβ25−35 for another 24 h without medium replacement. After treatment, 10 μL of MTT (5 mg/mL) was added to each well and incubated at 37 °C for 3 h. The cells were finally lysed with 100% DMSO, and the absorbance of MTT formazan was measured at 490 nm using a microplate reader.

[5] = 48 h, read-out: Cell proliferation inhibition (%)

For `CC(C)[C@@H](C)/C=C/[C@@H](C)[C@H]1CC[C@H]2C3=C(CC[C@]12C)[C@@]1(C)CC[C@H](O)C[C@@]12O[C@H]2C3=O` [Compound 29, (22E,24R)-5α,6α-epoxy-3β-hydroxy-ergosta-8,22-dien-7-one], the “antiviral effect against coxsackievirus B3” value (coxsackievirus B3) was “moderate antiviral effect”, the increased cell survival (coxsackievirus B3; 100 μg/mL, CVB-infected Vero cells) was 35.4% and the “cytopathic morphology of Vero cells infected with coxsackievirus B3” value (coxsackievirus B3; 100 μg/mL, microscope) was “reversed the cytopathic morphology”.
For `CC(C)[C@@H](C)/C=C/[C@@H](C)[C@H]1CC[C@H]2C3=CC(=O)O[C@@]3(O)CC[C@]12C` [Compound 33, demethylincisterol A3], the pIC50 (BEL7402) was 4.56, the inhibition at 6.25 µM (BEL7402; BEL7402, 6.25 μM, 48 h, read-out: Cell proliferation inhibition (%)) was 10% and the inhibition at 12.5 µM (BEL7402; BEL7402, 12.5 μM, 48 h, read-out: Cell proliferation inhibition (%)) was 15.3%. For the same molecule, the inhibition at 25 µM (BEL7402; BEL7402, 25 μM, 48 h, read-out: Cell proliferation inhibition (%)) was 49.4%, the inhibition at 50 µM (BEL7402; BEL7402, 50 μM, 48 h, read-out: Cell proliferation inhibition (%)) was 75.3% and the inhibition at 100 µM (BEL7402; BEL7402, 100 μM, 48 h, read-out: Cell proliferation inhibition (%)) was 82.8%. The pIC50 (PC-3) was 4.55, the inhibition at 6.25 µM (PC-3; PC-3, 6.25 μM, 48 h, read-out: Cell proliferation inhibition (%)) was 12.4% and the inhibition at 12.5 µM (PC-3; PC-3, 12.5 μM, 48 h, read-out: Cell proliferation inhibition (%)) was 21.6%. The inhibition at 25 µM (PC-3; PC-3, 25 μM, 48 h, read-out: Cell proliferation inhibition (%)) was 47.3%, the inhibition at 50 µM (PC-3; PC-3, 50 μM, 48 h, read-out: Cell proliferation inhibition (%)) was 67.7% and the inhibition at 100 µM (PC-3; PC-3, 100 μM, 48 h, read-out: Cell proliferation inhibition (%)) was 85.9%. For the same molecule, the pIC50 ([1]; Hela229, SGC7901, PC-3, and BEL7402 cells, read-out: IC50s) was 4.52 to 4.70, the pIC50 (Hela229) was 4.61 and the inhibition at 6.25 µM (Hela229; Hela229, 6.25 μM, 48 h, read-out: Cell proliferation inhibition (%)) was -4.8%. The inhibition at 12.5 µM (Hela229; Hela229, 12.5 μM, 48 h, read-out: Cell proliferation inhibition (%)) was 5.8%, the inhibition at 25 µM (Hela229; Hela229, 25 μM, 48 h, read-out: Cell proliferation inhibition (%)) was 52.3% and the inhibition at 50 µM (Hela229; Hela229, 50 μM, 48 h, read-out: Cell proliferation inhibition (%)) was 96.2%. For the same molecule, the inhibition at 100 µM (Hela229; Hela229, 100 μM, 48 h, read-out: Cell proliferation inhibition (%)) was 96.7%, the pIC50 (MCF-7/ADR) was less than 4.30 and the inhibition at 6.25 µM (MCF-7/ADR; [5]) was 5.5%. For the same molecule, the inhibition at 12.5 µM (MCF-7/ADR; [5]) was 5.1%, the inhibition at 25 µM (MCF-7/ADR; 25 μM, 48 h, read-out: Cell proliferation inhibition (%)) was 27.1% and the inhibition at 50 µM (MCF-7/ADR; [5]) was 42.6%. It also gave an inhibition at 100 µM (MCF-7/ADR; [5]) of 81.6%, a pIC50 (SGC7901) of 4.57 and an inhibition at 6.25 µM (SGC7901; SGC7901, 6.25 μM, 48 h, read-out: Cell proliferation inhibition (%)) of 8.3%. It also gave an inhibition at 12.5 µM (SGC7901; SGC7901, 12.5 μM, 48 h, read-out: Cell proliferation inhibition (%)) of 16.7%, an inhibition at 25 µM (SGC7901; SGC7901, 25 μM, 48 h, read-out: Cell proliferation inhibition (%)) of 39.1% and an inhibition at 50 µM (SGC7901; SGC7901, 50 μM, 48 h, read-out: Cell proliferation inhibition (%)) of 93.5%. It also gave an inhibition at 100 µM (SGC7901; SGC7901, 100 μM, 48 h, read-out: Cell proliferation inhibition (%)) of 94.7%.
Molecule `COc1cccc2c1C(=O)c1c(O)c3c(c(O)c1C2=O)C[C@@](O)(C(=O)CO)C[C@@H]3O[C@H]1C[C@H](N)[C@H](O)[C@H](C)O1` [Doxorubicin, reference compound] has a pIC50 (BEL7402) of 5.80, a pIC50 (PC-3) of 5.75 and a pIC50 ([1]; over the panel Hela229, SGC7901, PC-3, BEL7402, MCF-7/ADR, read-out: IC50) of 4.45 to 6.12. It also gave a pIC50 (Hela229) of 6.12, a pIC50 (MCF-7/ADR) of 4.45 and an inhibition at 6.25 µM (MCF-7/ADR; [5]) of 46.5%. It also gave an inhibition at 12.5 µM (MCF-7/ADR; [5]) of 44.2%, an inhibition at 50 µM (MCF-7/ADR; [5]) of 52.7% and an inhibition at 100 µM (MCF-7/ADR; [5]) of 52.8%. The pIC50 (SGC7901) was 6.10.
`CC(=O)N[C@@H](CS)C(=O)O` [NAC, N-acetylcysteine, reference compound] was tested, and the “Cell viability (% of control group)” value (SH-SY5Y cells [2]) was 81.05%.
In the case of `NC(=O)c1ncn([C@@H]2O[C@H](CO)[C@@H](O)[C@H]2O)n1` [Ribavirin, reference compound], the inhibition at 3.13 µM ([3]; B/Victoria strain, 3.13 μM, read-out: CPE inhibition) was 0%, the inhibition at 6.25 µM ([3]; B/Victoria strain, 6.25 μM, read-out: CPE inhibition) was 0% and the inhibition at 12.5 µM ([3]; B/Victoria strain, 12.5 μM, read-out: CPE inhibition) was 25%. It also gave an inhibition at 25 µM ([3]; B/Victoria strain, 25 μM, read-out: CPE inhibition) of 62.5%, an inhibition at 50 µM ([3]; B/Victoria strain, 50 μM, read-out: CPE inhibition) of 75% and an inhibition at 100 µM ([3]; B/Victoria strain, 100 μM, read-out: CPE inhibition) of 100%. For the same molecule, the pIC50 ([3]; B/Victoria strain, Table S5, read-out: IC50) was 4.69, the pEC50 ([3]; influenza virus B (Victoria strain), read-out: EC50) was 4.69 and the inhibition at 3.13 µM (influenza virus A/H3N2; Influenza A virus, A/H3N2 strain, 3.13 μM, read-out: CPE inhibition) was 3.3%. It also gave an inhibition at 6.25 µM (influenza virus A/H3N2; Influenza A virus, A/H3N2 strain, 6.25 μM, read-out: CPE inhibition) of 0%, an inhibition at 12.5 µM (influenza virus A/H3N2; Influenza A virus, A/H3N2 strain, 12.5 μM, read-out: CPE inhibition) of 10% and an inhibition at 25 µM (influenza virus A/H3N2; Influenza A virus, A/H3N2 strain, 25 μM, read-out: CPE inhibition) of 50.5%. It also gave an inhibition at 50 µM (influenza virus A/H3N2; Influenza A virus, A/H3N2 strain, 50 μM, read-out: CPE inhibition) of 75%, an inhibition at 100 µM (influenza virus A/H3N2; Influenza A virus, A/H3N2 strain, 100 μM, read-out: CPE inhibition) of 100% and a pIC50 (influenza virus A/H3N2; Influenza A virus, A/H3N2 strain, Table S5, read-out: IC50) of 4.55. It also gave a pEC50 (influenza virus A/H3N2; influenza virus A (H3N2 strain), read-out: EC50) of 4.55.
With “epigallocatechin-3-gallate [EGCG, reference compound]” the “Cell viability (% of control group)” value (SH-SY5Y cells [4]) was 104.80%.

— publication PMC11944884, “Bioactive Secondary Metabolites of Two Chinese Edible Boletes, Phlebopus portentosus and Butyriboletus roseoflavus” (Molecules, 2025)
